Two compounds from ChEMBL document CHEMBL1141460, “Sodium channel blockers” (J Med Chem, 2007) can be followed below.

Test [1] concerns the target Sodium channel protein type 9 subunit alpha (Homo sapiens, UniProt Q15858). Put plainly: Binding affinity to Nav1.7 sodium channel.
Test [2] concerns the target Sodium channel protein type 10 subunit alpha (Homo sapiens, UniProt Q9Y5Y9). Put plainly: Binding affinity to Nav1.8 sodium channel.
For test [3], the target named is Sodium channel protein type 2 subunit alpha (Homo sapiens, UniProt Q99250). Put plainly: Inhibition of inactivated human Nav1.2 sodium channel.
The target in test [4] is Sodium channel protein type 5 subunit alpha (Homo sapiens, UniProt Q14524). Put plainly: Inhibition of inactivated human Nav1.5 sodium channel.
In test [5] the test system is Rattus norvegicus. The test can be described thus: Analgesic activity in ip dosed rat by chung model of neuropathic pain. The format is functional.
The test system of test [6] is Rattus norvegicus. Put plainly: Analgesic activity in ip dosed rat by CCI model of neuropathic pain. Format: functional.
The species named for test [7] is Rattus norvegicus. Put plainly: Effect on locomotor activity in rat. The format is functional.
The species entered for test [8] is Rattus norvegicus. Put plainly: Effect on […] in rat by rotarod test. Format: functional.

Sodium channel protein type 9 subunit alpha, sequence (Q15858 whole entry): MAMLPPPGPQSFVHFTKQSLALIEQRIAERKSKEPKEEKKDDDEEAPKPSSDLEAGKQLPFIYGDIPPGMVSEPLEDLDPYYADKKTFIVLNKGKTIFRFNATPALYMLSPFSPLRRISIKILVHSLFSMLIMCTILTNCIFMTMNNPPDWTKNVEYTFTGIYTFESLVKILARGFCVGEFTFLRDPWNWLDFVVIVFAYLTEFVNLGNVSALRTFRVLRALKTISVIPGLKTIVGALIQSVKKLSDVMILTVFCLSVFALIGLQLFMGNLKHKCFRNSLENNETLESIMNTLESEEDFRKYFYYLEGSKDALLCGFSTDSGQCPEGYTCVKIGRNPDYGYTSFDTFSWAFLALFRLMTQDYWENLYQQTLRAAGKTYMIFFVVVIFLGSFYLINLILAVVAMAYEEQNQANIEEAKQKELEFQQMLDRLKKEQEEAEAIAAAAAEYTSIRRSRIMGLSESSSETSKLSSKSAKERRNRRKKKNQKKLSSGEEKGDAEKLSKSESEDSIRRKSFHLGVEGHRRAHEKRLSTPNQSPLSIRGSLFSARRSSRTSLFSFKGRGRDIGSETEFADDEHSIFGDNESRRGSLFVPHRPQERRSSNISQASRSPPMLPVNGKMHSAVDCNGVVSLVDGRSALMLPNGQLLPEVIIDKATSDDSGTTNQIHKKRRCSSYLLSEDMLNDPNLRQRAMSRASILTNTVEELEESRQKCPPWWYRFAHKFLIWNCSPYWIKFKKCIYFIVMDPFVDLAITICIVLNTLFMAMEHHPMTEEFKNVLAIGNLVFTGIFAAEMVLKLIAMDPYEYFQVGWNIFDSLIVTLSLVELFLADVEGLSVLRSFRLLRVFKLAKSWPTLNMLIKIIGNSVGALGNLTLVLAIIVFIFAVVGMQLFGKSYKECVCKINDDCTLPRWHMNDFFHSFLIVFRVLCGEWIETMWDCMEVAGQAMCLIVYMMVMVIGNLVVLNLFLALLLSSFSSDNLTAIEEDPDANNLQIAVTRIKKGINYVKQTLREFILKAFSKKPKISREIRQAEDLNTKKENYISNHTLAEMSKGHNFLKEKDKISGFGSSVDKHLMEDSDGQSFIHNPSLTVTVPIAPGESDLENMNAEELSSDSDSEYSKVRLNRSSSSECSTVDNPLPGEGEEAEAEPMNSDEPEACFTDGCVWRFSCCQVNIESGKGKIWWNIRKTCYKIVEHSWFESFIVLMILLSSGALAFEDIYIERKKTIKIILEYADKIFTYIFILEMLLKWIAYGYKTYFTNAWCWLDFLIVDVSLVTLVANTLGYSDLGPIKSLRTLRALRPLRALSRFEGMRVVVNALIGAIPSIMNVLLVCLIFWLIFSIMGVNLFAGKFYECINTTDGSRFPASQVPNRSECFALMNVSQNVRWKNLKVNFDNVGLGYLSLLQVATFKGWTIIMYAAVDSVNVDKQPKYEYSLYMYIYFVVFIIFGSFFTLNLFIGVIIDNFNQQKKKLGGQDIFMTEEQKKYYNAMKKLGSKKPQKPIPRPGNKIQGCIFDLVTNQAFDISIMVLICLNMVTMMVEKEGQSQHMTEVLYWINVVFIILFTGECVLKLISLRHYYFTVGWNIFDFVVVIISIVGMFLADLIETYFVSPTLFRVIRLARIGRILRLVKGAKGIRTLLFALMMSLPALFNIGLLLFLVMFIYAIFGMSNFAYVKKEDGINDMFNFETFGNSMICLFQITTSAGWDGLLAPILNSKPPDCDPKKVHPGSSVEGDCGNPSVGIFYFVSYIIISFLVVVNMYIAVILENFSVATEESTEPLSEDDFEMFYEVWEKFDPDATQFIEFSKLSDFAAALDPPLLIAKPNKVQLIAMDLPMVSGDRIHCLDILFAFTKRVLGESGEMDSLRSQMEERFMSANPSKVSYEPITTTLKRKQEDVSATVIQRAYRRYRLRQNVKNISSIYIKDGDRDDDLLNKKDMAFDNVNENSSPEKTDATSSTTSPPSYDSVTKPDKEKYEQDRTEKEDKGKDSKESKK
Sodium channel protein type 5 subunit alpha, sequence (Q14524 whole entry): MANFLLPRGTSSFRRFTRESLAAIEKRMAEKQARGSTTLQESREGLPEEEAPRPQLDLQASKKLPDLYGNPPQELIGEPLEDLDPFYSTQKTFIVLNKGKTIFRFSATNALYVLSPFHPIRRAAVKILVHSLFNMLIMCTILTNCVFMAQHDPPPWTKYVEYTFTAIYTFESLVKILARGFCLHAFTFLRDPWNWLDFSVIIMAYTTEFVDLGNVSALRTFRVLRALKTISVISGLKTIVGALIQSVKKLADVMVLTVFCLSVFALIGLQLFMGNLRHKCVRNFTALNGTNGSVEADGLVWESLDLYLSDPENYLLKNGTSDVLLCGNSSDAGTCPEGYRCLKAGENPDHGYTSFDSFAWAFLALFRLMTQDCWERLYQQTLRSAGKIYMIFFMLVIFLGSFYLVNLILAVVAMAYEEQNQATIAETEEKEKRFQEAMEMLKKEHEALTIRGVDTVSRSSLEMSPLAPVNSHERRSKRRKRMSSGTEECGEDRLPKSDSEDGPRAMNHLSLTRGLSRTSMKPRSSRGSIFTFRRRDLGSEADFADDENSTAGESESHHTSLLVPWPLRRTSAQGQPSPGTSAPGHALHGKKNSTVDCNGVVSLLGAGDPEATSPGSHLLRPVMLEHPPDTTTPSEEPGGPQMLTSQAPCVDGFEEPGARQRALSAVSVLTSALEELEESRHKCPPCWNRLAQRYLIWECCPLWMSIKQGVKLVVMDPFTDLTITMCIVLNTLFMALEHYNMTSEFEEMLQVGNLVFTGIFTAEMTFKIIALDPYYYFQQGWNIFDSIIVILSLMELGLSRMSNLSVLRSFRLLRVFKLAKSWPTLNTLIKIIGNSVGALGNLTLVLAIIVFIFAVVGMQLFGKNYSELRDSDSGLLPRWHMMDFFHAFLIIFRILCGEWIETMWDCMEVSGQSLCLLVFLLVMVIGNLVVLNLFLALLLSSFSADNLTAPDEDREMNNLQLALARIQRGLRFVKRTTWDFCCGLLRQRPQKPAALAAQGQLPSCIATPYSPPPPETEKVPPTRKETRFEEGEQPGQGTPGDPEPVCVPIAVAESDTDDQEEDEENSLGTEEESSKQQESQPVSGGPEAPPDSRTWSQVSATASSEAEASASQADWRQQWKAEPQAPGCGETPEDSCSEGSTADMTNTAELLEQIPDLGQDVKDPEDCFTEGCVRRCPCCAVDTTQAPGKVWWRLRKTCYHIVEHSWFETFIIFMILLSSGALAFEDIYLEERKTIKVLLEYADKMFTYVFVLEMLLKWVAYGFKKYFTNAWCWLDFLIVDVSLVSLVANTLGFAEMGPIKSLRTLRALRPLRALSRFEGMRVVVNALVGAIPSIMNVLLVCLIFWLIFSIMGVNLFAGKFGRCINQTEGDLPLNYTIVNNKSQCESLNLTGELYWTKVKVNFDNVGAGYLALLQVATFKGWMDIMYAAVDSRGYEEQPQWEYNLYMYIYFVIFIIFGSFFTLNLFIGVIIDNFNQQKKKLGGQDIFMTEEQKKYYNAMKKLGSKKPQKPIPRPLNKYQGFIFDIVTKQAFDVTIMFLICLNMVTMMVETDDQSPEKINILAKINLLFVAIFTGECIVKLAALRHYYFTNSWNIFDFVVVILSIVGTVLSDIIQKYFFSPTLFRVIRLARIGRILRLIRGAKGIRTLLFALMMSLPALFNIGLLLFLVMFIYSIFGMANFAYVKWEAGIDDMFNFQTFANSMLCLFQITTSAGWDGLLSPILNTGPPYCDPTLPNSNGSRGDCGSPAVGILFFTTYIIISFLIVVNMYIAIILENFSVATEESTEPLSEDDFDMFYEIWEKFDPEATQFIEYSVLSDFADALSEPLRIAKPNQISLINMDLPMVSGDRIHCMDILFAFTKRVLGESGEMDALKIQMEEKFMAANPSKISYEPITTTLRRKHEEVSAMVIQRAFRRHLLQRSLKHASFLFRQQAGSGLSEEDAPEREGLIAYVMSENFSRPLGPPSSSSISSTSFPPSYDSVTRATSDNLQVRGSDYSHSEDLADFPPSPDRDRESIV

`CN(Cc1ccc(-c2ccccc2S(N)(=O)=O)cc1)C(=O)[C@@H]1CCC[C@H]1C(=O)NCc1ccc(OC(F)(F)F)cc1`: the inhibitory constant (Ki) worked out at 0.25 µM in test [1] and 0.18 µM in test [2].
On to `COc1cc(NC(=O)c2ccc(-c3ccc(Cl)cc3)o2)cc(OC)c1`, for which the values for the half-maximal inhibitory concentration (IC50) in test [3] and in test [4] were 7.18 µM and 7.44 µM, respectively. Also, the ED50 in the test with Rattus norvegicus [5] is 47 µM; with Rattus norvegicus [6] it was 86 µM; in the test filed under Rattus norvegicus [7] it was over 300 µM; in the test filed under Rattus norvegicus [8], over 300 µM.
